# According to US20070111199A1, “Compounds and method of identifying, synthesizing, optimizing and profiling protein modulators” (priority 2005, published 2007):
# System: P210 T315I mutant kinase domain (120 Kd)
# Experiment: cell-free purified protein kinase autophosphorylation assay, T315I kinase domain
# Format: biochemical, human
# Conditions: 20 μM cell-free, FIGS. 17 and 18
# Protocol: Each of the compounds was also tested in a standard cell free protein kinase autophosphorylation assay at a concentration of 20 μM as shown in FIG. 18.
row,Structure (SMILES),"relative potency, cell-free assay vs phenoresponse-based cellular assay"
1,O=C(Nc1cccc(C(F)(F)F)c1)c1cccc(/C=N/Nc2ncc(F)c(N3CCOCC3)n2)n1 [Example C2-122],more potent in the cell-free assay than in the phenoresponse-based cellular system

# Target: T1, Ba/F3 cells overexpressing the p210^Bcr-Abl-T315I theramutein (Homo sapiens, UniProt P00519, T315I, cells depend on it)
# T1 construct: fused on or other part: P11274 (Breakpoint cluster region protein)
# Experiment: phenoresponse-based cellular assay (cell count/viability), Ba/F3 T315I test cells
# Parameters: species or system murine
# Conditions: FIG. 17
row,Structure (SMILES),relative potency in the phenoresponse-based assay
1,O=C(Nc1cccc(C(F)(F)F)c1)c1cccc(/C=N/Nc2ncc(F)c(N3CCOCC3)n2)n1 [Example C2-122],less potent than several of the other compounds tested

# Same assay, conditions: T315I vs control Ba/F3 cells, FIG. 1
row,Structure (SMILES),concentration showing the largest specificity gap within the dose-response series [nM]
1,Oc1c(Cl)cc(Br)cc1/C=N\Nc1ncc(F)c(N2CCOCC2)n1 [Example C2],500

# Same assay, conditions: read-out: T315I (IC50 activity category, growth inhibition by 50%); Ba/F3 T315I cell line
row,Structure (SMILES),GI50 [nM]
1,Oc1ccccc1/C=N/Nc1ncc(F)c(N2CCOCC2)n1,< 10000
2,Fc1cnc(N/N=C/c2ccccn2)nc1N1CCOCC1,< 1000
3,Oc1ccc(Br)cc1/C=N/Nc1ncc(F)c(N2CCOCC2)n1,< 1000
4,Cc1ccccc1/C=N/Nc1ncc(F)c(N2CCOCC2)n1,> 10000
5,Cc1ccc(/C=N/Nc2ncc(F)c(N3CCOCC3)n2)cc1,> 10000
6,Fc1cnc(N/N=C/c2ccccc2)nc1N1CCOCC1,> 10000
7,O=C(Nc1cccc(C(F)(F)F)c1)c1cc(Cl)c(O)c(/C=N\Nc2ncc(F)c(N3CCOCC3)n2)c1,< 1000
8,O=C(Nc1cccc(C(F)(F)F)c1)c1ccc(/C=N/Nc2ncc(F)c(N3CCOCC3)n2)nc1,< 1000
9,Fc1cnc(N/N=C/c2ccc(-c3cccc(C(F)(F)F)c3)cn2)nc1N1CCOCC1,< 1000
10,Cc1cccc(Cl)c1NC(=O)C/C=N/Nc1ncc(F)c(N2CCOCC2)n1,> 10000
11,Fc1cnc(N/N=C/c2ccc(Nc3ccc(N4CCOCC4)cc3)cn2)nc1N1CCOCC1,< 1000
12,Fc1cnc(N/N=C/c2ccc(Nc3ccc(-c4ccccn4)c(Cl)c3)cn2)nc1N1CCOCC1,< 1000
13,CC(C(=O)O)c1ccc(Nc2ccc(/C=N/Nc3ncc(F)c(N4CCOCC4)n3)nc2)cc1 (stereo not shown),> 10000
14,Fc1cnc(N/N=C/c2ccc(Nc3cccc(-n4ccnc4)c3)cn2)nc1N1CCOCC1,< 1000
15,Cc1cc(Nc2ccc(/C=N/Nc3ncc(F)c(N4CCOCC4)n3)nc2)cc(N2CCNCC2)c1,< 1000
16,O=C(NNc1ncc(F)c(N2CCOCC2)n1)c1ccc(Nc2cccc(C(F)(F)F)c2)cn1,< 1000
17,Cc1cc(Nc2cccc(C(F)(F)F)c2)ccc1/C=N/Nc1ncc(F)c(N2CCOCC2)n1,> 10000
18,CN(C)c1cc(O)cc(Nc2ccc(/C=N/Nc3ncc(F)c(N4CCOCC4)n3)nc2)c1,< 1000
19,Fc1cnc(N/N=C/c2ccc(Nc3cccc(C(F)(F)F)c3)cn2)nc1-c1cncc(-c2ccccc2)c1,< 1000
20,Fc1cnc(N/N=C/c2ccc(Nc3cccc(C(F)(F)F)c3)cn2)nc1-c1cncc(C2CC2)c1,< 10000
21,Oc1cccc(Nc2cccc(Nc3ccc(/C=N/Nc4ncc(F)c(N5CCOCC5)n4)nc3)c2)c1,< 1000
22,O=C(Nc1cccc(C(F)(F)F)c1)c1cccc(/C=N/Nc2ncc(F)c(N3CCOCC3)n2)n1 [drawing 209],> 10000
